Like-named read-outs stand apart in the source and are kept apart here. Numbered stars: 1 amine (or outer) side, 2 acyl side, 3 side chain; on linkers, the order of the positions; unused ones are H or OH. Bridge positions count the residues as written; N and C are the ends. Square brackets hold non-standard residues; d marks the D form. Peptide text beside a SMILES is read from it. * marks the point of attachment. Bip(4'-COOH) = N[C@@H](Cc1ccc(-c2ccc(C(=O)O)cc2)cc1)C(=O)O; Phe(3-CF3) = N[C@@H](Cc1cccc(C(F)(F)F)c1)C(=O)O; Ala(morpholin-4-yl) = N[C@@H](CN1CCOCC1)C(=O)O; Phe(4-CONH2) = NC(=O)c1ccc(C[C@H](N)C(=O)O)cc1; Phe(4-COOH) = N[C@@H](Cc1ccc(C(=O)O)cc1)C(=O)O; Phe(2-CF3) = N[C@@H](Cc1ccccc1C(F)(F)F)C(=O)O; Bip = N[C@@H](Cc1ccc(-c2ccccc2)cc1)C(=O)O; Abu(3R-NH2) = C[C@@H](N)[C@H](N)C(=O)O; Phe(3-Me) = Cc1cccc(C[C@H](N)C(=O)O)c1; Abu(3S-NH2) = C[C@H](N)[C@H](N)C(=O)O; Glutaryl = O=C(CCCC(=O)[*:2])[*:1]; Val(3-OH) = CC(C)(O)[C@H](N)C(=O)O; Ala(cPr) = N[C@@H](CC1CC1)C(=O)O; hCha = N[C@@H](CCC1CCCCC1)C(=O)O; hPhe = N[C@@H](CCc1ccccc1)C(=O)O; Cha = N[C@@H](CC1CCCCC1)C(=O)O; Carboxymethyl = O=C(O)C*; NMeA = CN[C@@H](C)C(=O)O; Orn = NCCC[C@H](N)C(=O)O; Dab = NCC[C@H](N)C(=O)O; Dap = NC[C@H](N)C(=O)O
Tests used:
[1] = target: T1, PD1-PDL1 protein-protein binding interaction [hPD1(25-167)-hIgG, hPD-L1 (19-239)-6xHis] (Homo sapiens, UniProt Q15116); test: HTRF Assay (TR-FRET); conditions: 5 nM hPD1-hIgG, 5 nM hPD-L1-6xHis, 24 hours at 25° C., head μM
T1 construct: hPD1(25-167)-hIgG, BMS
T1 sequence (Q15116 25-167): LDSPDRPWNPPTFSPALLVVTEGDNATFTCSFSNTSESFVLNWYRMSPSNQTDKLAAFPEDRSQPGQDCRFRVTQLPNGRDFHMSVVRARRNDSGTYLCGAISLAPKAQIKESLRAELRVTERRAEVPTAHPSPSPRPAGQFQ
Procedure: A time-resolved fluorescence resonance energy transfer (TR-FRET) assay was employed to measure the inhibition of the PD1-PDL1 protein-protein binding interaction. The reaction buffer was prepared by mixing the HiBlock buffer and LANCE detection buffer (PerkinElmer, TRF1011F and CR97-100) at a 1:1 ratio. Assay reactions contained 5 nM human programmed cell death 1 [hPD1(25-167)-hIgG, BMS], 5 nM human programmed cell death ligand 1 [hPD-L1 (19-239)-6×His, BMS], in the presence of 1 nM LANCE Eu-W1024 Anti-Human IgG (Eu-anti hIgG, PerkinElmer, AD0074) and 20 nM SureLight Allophycocyanin-anti-6×His antibody (APC-anti-6×His, PerkinElmer, AD0059H). Test compounds were evaluated in a 10-point dose-response format with serial three-fold dilutions starting from a 2 uM top concentration. Reactions were carried out in a total volume of 10 uL in 384-well microtiter plates (Proxiplate white, PerkinElmer, 6008289). Plates were sealed and incubated for 24 hours at 25° C. After 24 hours, the TR-FRET signal was measured using a PerkinElmer EnVision multimode plate reader and the resulting ratiometric data set (signal at 665 nm/615 nm, multiplied by a factor of 10,000) was recorded. The concentration giving half-maximal inhibition (the IC50) was obtained by fitting the data to a four-parameter logistic equation using Graphpad Prism or Dotmatics.

[2] = target: T2, Alexa fluor-647 labeled human PD-L1-Ig binding to Jurkat cell line over-expressing human PD-1 (Homo sapiens, UniProt Q15116); test: Jurkat-PD-1 Cell Binding High-Content Screening Assay (CBA): Method 3 (Alexa fluor-647 labeled PD-L1-Ig); conditions: Jurkat-PD-1 cells, Alexa fluor-647 labeled PD-L1-Ig 177 nM
T2 construct: expressed in transfected cells; host or cells: Jurkat
T2 sequence (Q15116 25-288): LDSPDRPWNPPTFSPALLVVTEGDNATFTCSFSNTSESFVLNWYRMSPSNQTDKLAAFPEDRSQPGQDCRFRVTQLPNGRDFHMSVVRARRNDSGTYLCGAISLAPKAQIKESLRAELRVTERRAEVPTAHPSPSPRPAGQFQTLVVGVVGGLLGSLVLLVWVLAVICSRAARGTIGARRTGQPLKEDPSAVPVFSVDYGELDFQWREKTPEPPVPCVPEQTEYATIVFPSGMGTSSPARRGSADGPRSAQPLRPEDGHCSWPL
How it was run: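 Readout by high-content imaging of PFA-fixed, Hoechst-stained cells after 1 h with 177 nM (final) Alexa fluor-647 PD-L1-Ig. Compound was added first to hPD-1 Jurkat cells in RPMI plus 10% FCS for 2 h at 37 °C.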

[3] = head μM, read-out: CBA Method 3 μM

Row | Structure (SMILES) | IC50 [1] [µM] | IC50 ([2]; nM, read-out: CBA Method 3) [nM] | IC50 [2, 3] [nM]
1 | Cc1cccc(C[C@@H]2NC(=O)[C@H](CC(=O)O)NC(=O)[C@H](Cc3ccc(OCC(=O)O)cc3)NC(=O)[C@H](CN3CCOCC3)NC(=O)CSC[C@@H](C(=O)N[C@@H](CCN)C(N)=O)NC(=O)[C@H](CCC(=O)O)NC(=O)[C@H](C(C)C)NC(=O)[C@H](CC3CCCCC3)NC(=O)[C@H](CCN)NC(=O)[C@@H](CC(C)C)NC(=O)[C@H](C)N(C)C(=O)[C@H](CCC(N)=O)NC(=O)[C@H](Cc3ccc(-c4ccccc4)cc3)NC(=O)[C@H](CCc3ccccc3)NC2=O)c1 [Example 5212] ({CH2CO}-[Ala(morpholin-4-yl)]Y(Carboxymethyl)D[Phe(3-Me)][hPhe][Bip]Q[NMeA][dL][Dab][Cha]VEC[Dab]-NH2; thioether N-14) | 0.02 | 3.9 | –
2 | CC(C)C[C@H]1NC(=O)[C@H](C)N(C)C(=O)[C@H](Cc2ccc(C(=O)O)cc2)NC(=O)[C@H](Cc2ccc(-c3ccccc3)cc2)NC(=O)[C@H](Cc2ccc(C(=O)O)cc2)NC(=O)[C@H](Cc2cccc(C(F)(F)F)c2)NC(=O)[C@H](CC(=O)O)NC(=O)[C@H](Cc2ccc(C(=O)O)cc2)NC(=O)[C@H](CC2CCCCC2)NC(=O)CSC[C@@H](C(=O)N[C@@H](CCN)C(N)=O)NC(=O)[C@H](CNC(=O)CCCC(=O)O)NC(=O)[C@H](C(C)C)NC(=O)[C@H](CC2CCCCC2)NC(=O)[C@H](CCN)NC1=O [Example 5229] ({CH2CO}-[Cha][Phe(4-COOH)]D[Phe(3-CF3)][Phe(4-COOH)][Bip][Phe(4-COOH)][NMeA][dL][Dab][Cha]V[Dap](Glutaryl)C[Dab]-NH2; thioether N-14) | 0.04 | 3.8 | –
3 | CC(C)C[C@H]1NC(=O)[C@H](C)N(C)C(=O)[C@H](CCC(N)=O)NC(=O)[C@H](Cc2ccc(-c3ccccc3)cc2)NC(=O)[C@H](Cc2ccc(OCC(=O)O)cc2)NC(=O)[C@H](Cc2cccc(C(F)(F)F)c2)NC(=O)[C@H](CC(=O)O)NC(=O)[C@H](Cc2ccc(O)cc2)NC(=O)[C@H]([C@@H](C)N)NC(=O)CSC[C@@H](C(=O)N[C@@H](CCN)C(N)=O)NC(=O)[C@H](CCCN)NC(=O)[C@H](C(C)C)NC(=O)[C@H](CC2CCCCC2)NC(=O)[C@H](CCN)NC1=O [Example 5239] ({CH2CO}-[Abu(3R-NH2)]YD[Phe(3-CF3)]Y(Carboxymethyl)[Bip]Q[NMeA][dL][Dab][Cha]V[Orn]C[Dab]-NH2; thioether N-14) | 0.02 | – | 20
4 | CC(C)C[C@H]1NC(=O)[C@H](C)N(C)C(=O)[C@H](CCC(N)=O)NC(=O)[C@H](Cc2ccc(-c3ccccc3)cc2)NC(=O)[C@H](Cc2ccc(OCC(=O)O)cc2)NC(=O)[C@H](Cc2cccc(C(F)(F)F)c2)NC(=O)[C@H](CC(=O)O)NC(=O)[C@H](Cc2ccc(O)cc2)NC(=O)[C@H](CN2CCOCC2)NC(=O)CSC[C@@H](C(=O)N[C@@H](CCN)C(N)=O)NC(=O)[C@H](CCCN)NC(=O)[C@H](C(C)C)NC(=O)[C@H](CC2CCCCC2)NC(=O)[C@H](CCN)NC1=O [Example 5237] ({CH2CO}-[Ala(morpholin-4-yl)]YD[Phe(3-CF3)]Y(Carboxymethyl)[Bip]Q[NMeA][dL][Dab][Cha]V[Orn]C[Dab]-NH2; thioether N-14) | 0.03 | 4.4 | –
5 | CC(C)C[C@H]1NC(=O)[C@H](C)N(C)C(=O)[C@H](Cc2ccc(C(N)=O)cc2)NC(=O)[C@H](Cc2ccc(-c3ccccc3)cc2)NC(=O)[C@H](CCc2ccccc2)NC(=O)[C@H](Cc2cccc(C(F)(F)F)c2)NC(=O)[C@H](CC(=O)O)NC(=O)[C@H](Cc2ccc(C(=O)O)cc2)NC(=O)[C@H]([C@H](C)N)NC(=O)CSC[C@@H](C(=O)N[C@@H](CCN)C(N)=O)NC(=O)[C@H](CCC(N)=O)NC(=O)[C@H](C(C)(C)O)NC(=O)[C@H](CC2CCCCC2)NC(=O)[C@H](CCN)NC1=O [Example 5206] ({CH2CO}-[Abu(3S-NH2)][Phe(4-COOH)]D[Phe(3-CF3)][hPhe][Bip][Phe(4-CONH2)][NMeA][dL][Dab][Cha][Val(3-OH)]QC[Dab]-NH2; thioether N-14) | 0.05 | – | 10

Second part, the molecule after the results:

Row | IC50 [1] [µM] | IC50 ([2]; nM, read-out: CBA Method 3) [nM] | IC50 [2, 3] [nM] | Structure (SMILES)
6 | 0.03 | 4.5 | – | Cc1cccc(C[C@@H]2NC(=O)[C@H](CC(=O)O)NC(=O)[C@H](Cc3ccc(OCC(=O)O)cc3)NC(=O)[C@H](CCC3CCCCC3)NC(=O)CSC[C@@H](C(=O)N[C@@H](CCN)C(N)=O)NC(=O)[C@H](CCCN)NC(=O)[C@H](C(C)C)NC(=O)[C@H](CC3CCCCC3)NC(=O)[C@H](CCN)NC(=O)[C@@H](CC(C)C)NC(=O)[C@H](C)N(C)C(=O)[C@H](CCC(N)=O)NC(=O)[C@H](Cc3ccc(-c4ccccc4)cc3)NC(=O)[C@H](Cc3ccc(C(=O)O)cc3)NC2=O)c1 [Example 5186] ({CH2CO}-[hCha]Y(Carboxymethyl)D[Phe(3-Me)][Phe(4-COOH)][Bip]Q[NMeA][dL][Dab][Cha]V[Orn]C[Dab]-NH2; thioether N-14)
7 | 0.03 | 7.6 | – | Cc1cccc(C[C@@H]2NC(=O)[C@H](CC(=O)O)NC(=O)[C@H](Cc3ccc(OCC(=O)O)cc3)NC(=O)[C@H](Cc3ccc(-c4ccc(C(=O)O)cc4)cc3)NC(=O)CSC[C@@H](C(=O)N[C@@H](CCN)C(N)=O)NC(=O)[C@H](CCCN)NC(=O)[C@H](C(C)C)NC(=O)[C@H](CC3CCCCC3)NC(=O)[C@H](CCN)NC(=O)[C@@H](CC(C)C)NC(=O)[C@H](C)N(C)C(=O)[C@H](CCC(N)=O)NC(=O)[C@H](Cc3ccc(-c4ccccc4)cc3)NC(=O)[C@H](Cc3ccc(C(=O)O)cc3)NC2=O)c1 [Example 5177] ({CH2CO}-[Bip(4'-COOH)]Y(Carboxymethyl)D[Phe(3-Me)][Phe(4-COOH)][Bip]Q[NMeA][dL][Dab][Cha]V[Orn]C[Dab]-NH2; thioether N-14)
8 | 0.01 | 2.3 | – | Cc1cccc(C[C@@H]2NC(=O)[C@H](CC(=O)O)NC(=O)[C@H](Cc3ccc(OCC(=O)O)cc3)NC(=O)[C@H](CC3CC3)NC(=O)CSC[C@@H](C(=O)N[C@@H](CCN)C(N)=O)NC(=O)[C@H](CCCN)NC(=O)[C@H](C(C)C)NC(=O)[C@H](CC3CCCCC3)NC(=O)[C@H](CCN)NC(=O)[C@@H](CC(C)C)NC(=O)[C@H](C)N(C)C(=O)[C@H](CCC(N)=O)NC(=O)[C@H](Cc3ccc(-c4ccccc4)cc3)NC(=O)[C@H](Cc3ccc(C(=O)O)cc3)NC2=O)c1 [Example 5185] ({CH2CO}-[Ala(cPr)]Y(Carboxymethyl)D[Phe(3-Me)][Phe(4-COOH)][Bip]Q[NMeA][dL][Dab][Cha]V[Orn]C[Dab]-NH2; thioether N-14)
9 | 0.03 | 0.2 | – | Cc1cccc(C[C@@H]2NC(=O)[C@H](CC(=O)O)NC(=O)[C@H](Cc3ccc(OCC(=O)O)cc3)NC(=O)[C@H](Cc3ccccc3C(F)(F)F)NC(=O)CSC[C@@H](C(=O)N[C@@H](CCN)C(N)=O)NC(=O)[C@H](CCCN)NC(=O)[C@H](C(C)C)NC(=O)[C@H](CC3CCCCC3)NC(=O)[C@H](CCN)NC(=O)[C@@H](CC(C)C)NC(=O)[C@H](C)N(C)C(=O)[C@H](CCC(N)=O)NC(=O)[C@H](Cc3ccc(-c4ccccc4)cc3)NC(=O)[C@H](Cc3ccc(C(=O)O)cc3)NC2=O)c1 [Example 5292] ({CH2CO}-[Phe(2-CF3)]Y(Carboxymethyl)D[Phe(3-Me)][Phe(4-COOH)][Bip]Q[NMeA][dL][Dab][Cha]V[Orn]C[Dab]-NH2; thioether N-14)

Reference: patent publication US20240409585A1, “MACROCYCLIC IMMUNOMODULATORS” (priority 2021, published 2024)
